Source: ChEMBL document CHEMBL1201862, “PubChem BioAssay data set” (2004)
Active and inactive are the calls of the source.

What was measured:
CAAX prenyl protease 2 = CAAX prenyl protease 2 (Homo sapiens, UniProt Q9Y256); test: human Rce1 protease inhibitors, dose response, biochemical, yeast membranes, quenched-peptide fluorescence, cherry-pick (AID 588849)
Trypsin = Trypsin (Sus scrofa, UniProt P00761); test: porcine trypsin inhibitors, dose response, selectivity assay for Rce1 protease inhibitor project, biochemical, quenched peptide fluorescence, cherry-pick (AID 488789)
[1] = cytotoxicity in HEK-293T NF-kB-Luc cells, dose response, cytotoxicity control for B/T-cell NF-kB inhibitor project, cell-based, uHTS hits (AID 489019); format: functional;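 further: IC50 reflects cytotoxicity as loss of cell viability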
Jurkat = test: antigen receptor-induced NF-kB inhibitors, dose response, Jurkat, luciferase reporter, luminescence, B- and T-cell (AID 489004); format: functional, cell-based; conditions: Homo sapiens;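 further: NF-kB luciferase reporter Jurkat cells stimulated with PMA plus ionomycin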
[2] = cytotoxicity toward DRD oncogenic fibroblasts, dose response, cell-based, non-viral oncogenic, luminescence (AID 1934); format: functional; conditions: Homo sapiens
BJ [3] = test: cells; format: functional, cell-based; conditions: Homo sapiens
[4] = Luminescence Cell-Based Dose Confirmation HTS to Identify Inhibitors of Platelet Dense Granule Release. [Related pubchem assays: 1663 (Primary HTS), 1678 (Summary of Project)]; format: functional
[5] = Counterscreen for antagonists of the orexin 1 receptor (OX1R; HCRTR1): Fluorescence-based cell-based high throughput dose response assay to identify antagonists of the parental CHO cell line. [Related pubchem assays (depositor defined):AID434989, AID435008, AID463079, AID485270, AID492963, AID492964, AID492965, AID493232, AID504699, AID504701]; format: functional
[6] = molecular target: Luciferin 4-monooxygenase (Photinus pyralis, UniProt P08659); test: firefly luciferase enzyme inhibitors, dose response, biochemical, luminescence (AID 1891)
[7] = molecular target: T1, Orexin/Hypocretin receptor type 1 (Homo sapiens, UniProt O43613); test: Fluorescence-based cell-based high throughput dose response assay for antagonists of the orexin 1 receptor (OX1R; HCRTR1). [Related pubchem assays (depositor defined):AID434989, AID435008, AID463079, AID485270, AID492963, AID492964, AID492965, AID493232, AID504717, AID504718]; format: functional
T1 sequence (O43613 whole entry): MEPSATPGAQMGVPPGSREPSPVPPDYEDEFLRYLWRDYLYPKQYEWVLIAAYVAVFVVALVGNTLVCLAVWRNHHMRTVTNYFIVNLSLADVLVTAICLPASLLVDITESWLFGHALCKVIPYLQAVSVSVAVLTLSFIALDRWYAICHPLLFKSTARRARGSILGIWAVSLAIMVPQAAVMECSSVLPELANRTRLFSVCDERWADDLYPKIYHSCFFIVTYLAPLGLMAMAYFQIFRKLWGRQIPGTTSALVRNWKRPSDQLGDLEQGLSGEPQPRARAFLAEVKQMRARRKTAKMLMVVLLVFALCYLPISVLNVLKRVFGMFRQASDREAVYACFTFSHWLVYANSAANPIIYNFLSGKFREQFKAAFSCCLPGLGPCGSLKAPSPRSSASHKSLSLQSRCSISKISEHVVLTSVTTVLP

BJ [8] = test: cytotoxicity toward BJ-TERT fibroblasts, dose response, cell-based, RAS-independent, luminescence (AID 1933); format: functional; conditions: Homo sapiens
CHO-K1 = test: Counterscreen for antagonists of the orexin 1 receptor (OX1R; HCRTR1): Homogeneous time resolved fluorescence (HTRF)-based cell-based dose response assay to identify antagonists of the parental CHO-K1 cell line. [Related pubchem assays (depositor defined):AID434989, AID435008, AID463079, AID485270, AID492963, AID492964, AID492965, AID493232, AID504699, AID504701]; format: functional; conditions: Cricetulus griseus;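 further: potency for inhibition of ATP-stimulated IP1 production as antagonists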
[9] = molecular target: T1, Orexin/Hypocretin receptor type 1; test: Homogeneous Time Resolved Fluorescence (HTRF)-based cell-based high throughput dose response assay for antagonists of the orexin 1 receptor (OX1R; HCRTR1). [Related pubchem assays (depositor defined):AID434989, AID435008, AID463079, AID485270, AID492963, AID492964, AID492965, AID493232, AID504717, AID504718]; format: functional
BJ [10] = test: cytotoxicity toward Ras-transformed BJeLR fibroblasts, dose response, cell-based, alamar blue fluorescence, cherrypicked samples (AID 2631); format: functional; conditions: Homo sapiens;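 further: confirmatory dose-response assay in RAS-dependent BJ fibroblasts engineered with TERT, LT and ST, with cytotoxicity read by fluorescence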
BJ [11] = test: cytotoxicity toward BJ-TERT-LT-ST fibroblasts, dose response, cell-based, RAS-independent, luminescence (AID 1935); format: functional; conditions: Homo sapiens;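 further: BJ fibroblasts immortalized with TERT plus LT and ST oncogenes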
Vero = test: cells; format: functional, cell-based; conditions: Chlorocebus sabaeus
[12] = A549 cell cytotoxicity, dose response, cytotoxicity control, plate reader, cherry-pick, antagonist series (AID 743412); format: functional, cell-based
[13] = molecular target: Delta-type opioid receptor (Homo sapiens, UniProt P41143); test: Counterscreen for agonists of heterodimerization of the mu 1 (OPRM1) and delta 1 (OPRD1) opioid receptors: Luminescence-based cell-based high throughput dose response assay to identify agonists of OPRD1 homodimerization. [Related pubchem assays (depositor defined):AID504326, AID504355, AID504692, AID504904, AID504905]; format: functional
[14] = LGR2 antagonists, dose response, cell-based, HEK293, CRE-luciferase reporter, cherry pick, set 2 (AID 743343); format: functional;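 further: transfected cells were stimulated with diluted bursicon conditioned medium after compound addition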
[15] = MC4R antagonists, dose response, counter-screen for LGR2 antagonist project, cell-based, plate reader, cherry pick (AID 743444); format: functional;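 further: transfected HEK 293 cells stimulated with alpha-MSH peptide; potency of inhibitors of the alpha-MSH evoked signal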
[16] = HEK293 cell cytotoxicity, dose response, cytotoxicity control, plate reader, cherry-picked samples (AID 743446); format: functional, cell-based
Mu-type opioid receptor = Mu-type opioid receptor (Homo sapiens, UniProt P35372); test: Counterscreen for agonists of heterodimerization of the mu 1 (OPRM1) and delta 1 (OPRD1) opioid receptors: Luminescence-based cell-based high throughput dose response assay to identify agonists of OPRM1 homodimerization.; format: functional;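 further: U2OS cells expressing OPRM1 and beta-arrestin as split beta-galactosidase partners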
[17] = inhibitors of firefly luciferase expression or activity, dose response, H4 neuroglioma cells, luminescence (AID 1990); format: functional, cell-based
[18] = HepG2 cell cytotoxicity, dose response, cytotoxicity control, plate reader, cherry-pick, antagonist series (AID 743416); format: functional, cell-based
[19] = molecular target: 5-hydroxytryptamine receptor 5A (Homo sapiens, UniProt P47898); test: Counterscreen for agonists of OPRM1-OPRD1 heterodimerization: luminescence-based cell-based high throughput dose response assay to identify agonists of 5-hydroxytryptamine (serotonin) 5A receptor (HTR5A). [Related pubchem assays (depositor defined):AID504326, AID504355, AID504692, AID504904, AID504905]; format: functional
INS1 = test: beta cell apoptosis inhibitors, cytokine rescue, dose response, luminescence, retest (AID 449756); format: functional, cell-based; conditions: Rattus norvegicus;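 further: cell death triggered by IL-1 beta plus TNF-alpha plus IFN-gamma mixture; protective hits raise ATP signal compared with cytokine alone wells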
[20] = Luminescence Cell-Based Dose Response HTS to Identify Inhibitors of 5'UTR Stem-Loop Driven Prion Protein mRNA Translation in H4 Neuroglioblastoma Cells. [Related pubchem assays: 1827 (Project Summary), 1813 (Primary HTS)]; format: functional
[21] = Luminescence Cell-Based Dose Retest to Confirm Inhibitors of Cancer Stem Cells. [Related pubchem assays (depositor defined):AID2717, AID2721]; format: functional; conditions: Homo sapiens
[22] = inhibitors of SNCA 5'UTR-driven reporter translation, confirmation, H4 neuroglioma cells, luminescence (AID 1988); format: functional, cell-based
[23] = inhibitors of intracellular T. cruzi replication, confirmation, NIH3T3 host cells, beta-gal luminescence (AID 2044); format: functional, cell-based;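 further: intracellular parasites grown in NIH/3T3 mouse fibroblasts as host cells; luminescent beta-galactosidase reporter signal from transgenic T. cruzi replicating inside host cells; inhibitors lower the luminescence signal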
[24] = cytotoxicity toward NIH3T3 fibroblasts, dose response, counter-screen, cell-based, ATP luminescence, mouse fibroblasts (AID 2010); format: functional;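 further: cells exposed to compound for about 90 hours before reading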
Escherichia coli [25] = test: microbe, parasite or virus in culture
Escherichia coli [26] = test: microbe, parasite or virus in culture; remark: listed apart in the source
[27] = HEp-2 cell cytotoxicity, dose response, cytotoxicity control for RSV inhibitor project, HTS (AID 2410); format: functional; conditions: human respiratory syncytial virus
A-375 = test: A375 melanoma cell viability reduction, dose response, counter-screen for MITF modulator project, cherry-pick samples, set 2 (AID 540335); format: functional, cell-based; conditions: Homo sapiens
Insulin-degrading enzyme [28] = molecular target: T2, Insulin-degrading enzyme (Homo sapiens, UniProt P14735); test: activators of recombinant IDE enzyme, dose response, counter-screen for IDE activator project, biochemical, fluorescence polarization (AID 588681)
T2 sequence (P14735 whole entry): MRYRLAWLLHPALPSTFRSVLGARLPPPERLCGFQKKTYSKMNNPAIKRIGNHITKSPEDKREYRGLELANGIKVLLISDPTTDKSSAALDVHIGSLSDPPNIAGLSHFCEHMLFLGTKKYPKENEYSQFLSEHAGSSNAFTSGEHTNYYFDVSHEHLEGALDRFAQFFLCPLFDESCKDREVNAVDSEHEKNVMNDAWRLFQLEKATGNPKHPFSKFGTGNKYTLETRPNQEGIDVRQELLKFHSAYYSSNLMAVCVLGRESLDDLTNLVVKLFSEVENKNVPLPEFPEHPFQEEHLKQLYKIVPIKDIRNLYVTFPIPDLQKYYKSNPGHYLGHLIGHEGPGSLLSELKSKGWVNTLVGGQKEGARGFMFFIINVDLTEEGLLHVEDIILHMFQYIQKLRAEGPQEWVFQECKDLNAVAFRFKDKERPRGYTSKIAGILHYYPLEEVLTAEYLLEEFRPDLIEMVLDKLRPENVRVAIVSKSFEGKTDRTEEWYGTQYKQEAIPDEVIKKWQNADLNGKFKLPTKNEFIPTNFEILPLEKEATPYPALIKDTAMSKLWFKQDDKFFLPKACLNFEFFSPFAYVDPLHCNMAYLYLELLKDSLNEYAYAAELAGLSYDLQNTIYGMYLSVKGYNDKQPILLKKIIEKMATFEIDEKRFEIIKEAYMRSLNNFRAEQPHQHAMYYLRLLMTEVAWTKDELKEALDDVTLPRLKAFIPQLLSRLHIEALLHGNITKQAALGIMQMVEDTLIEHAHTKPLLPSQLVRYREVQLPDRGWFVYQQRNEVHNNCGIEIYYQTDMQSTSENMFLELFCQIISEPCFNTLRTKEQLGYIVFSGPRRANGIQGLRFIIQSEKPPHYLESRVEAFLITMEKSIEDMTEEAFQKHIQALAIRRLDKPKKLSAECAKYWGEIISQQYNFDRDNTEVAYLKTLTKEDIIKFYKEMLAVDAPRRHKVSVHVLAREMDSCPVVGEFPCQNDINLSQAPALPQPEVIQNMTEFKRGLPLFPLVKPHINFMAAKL

HEK293 [29] = test: HEK cell cytotoxicity by LDH release, dose response, cytotoxicity control for IDE activator project, fluorescence, HEK cells (AID 588440); format: functional, cell-based; conditions: Homo sapiens;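 further: cytotoxicity by LDH release measuring loss of membrane integrity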
[30] = HepG2 cell cytotoxicity, dose response, cytotoxicity control for non-replicating M. tuberculosis project (AID 489018); format: functional; conditions: Mycobacterium tuberculosis
cells = format: functional
HEK293 [31] = test: optical interference in Abeta FP readout, dose response, artefact control for IDE activator project, biochemical, fluorescence polarization (AID 588442); format: functional, cell-based; conditions: Homo sapiens
[32] = Vero E6 cell cytotoxicity, dose response, cytotoxicity control for non-replicating M. tuberculosis project, secondary assay (AID 492998); format: functional, VeroE6; conditions: Vero C1008
Insulin-degrading enzyme [33] = molecular target: T2, Insulin-degrading enzyme; test: activators of endogenous IDE in HEK cells, dose response, cell-based, fluorescence polarization (AID 588439); format: functional
[34] = THP-1 cell cytotoxicity, dose response, cytotoxicity control for non-replicating M. tuberculosis project (AID 489025); format: functional

Chain of Delta-type opioid receptor (P41143 whole entry): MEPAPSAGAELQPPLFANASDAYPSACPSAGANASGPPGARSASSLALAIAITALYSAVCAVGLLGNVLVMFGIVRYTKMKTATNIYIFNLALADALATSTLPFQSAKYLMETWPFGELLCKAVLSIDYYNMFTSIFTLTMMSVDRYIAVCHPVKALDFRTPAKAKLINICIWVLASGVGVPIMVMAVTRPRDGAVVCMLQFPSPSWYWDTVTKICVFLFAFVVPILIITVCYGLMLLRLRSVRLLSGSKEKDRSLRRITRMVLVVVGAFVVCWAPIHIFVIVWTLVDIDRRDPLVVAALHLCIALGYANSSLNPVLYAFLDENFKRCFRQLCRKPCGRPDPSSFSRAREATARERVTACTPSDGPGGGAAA
Chain of CAAX prenyl protease 2 (Q9Y256 whole entry): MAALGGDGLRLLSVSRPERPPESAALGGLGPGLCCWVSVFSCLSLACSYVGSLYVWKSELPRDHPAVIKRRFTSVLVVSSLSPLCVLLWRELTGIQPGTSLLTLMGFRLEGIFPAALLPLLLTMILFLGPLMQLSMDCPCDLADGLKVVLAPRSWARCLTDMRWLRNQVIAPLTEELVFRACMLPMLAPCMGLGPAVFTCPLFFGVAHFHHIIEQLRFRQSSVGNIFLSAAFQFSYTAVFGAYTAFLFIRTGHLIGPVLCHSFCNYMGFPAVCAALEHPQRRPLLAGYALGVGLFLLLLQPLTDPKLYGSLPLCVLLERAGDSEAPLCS
Chain of Trypsin (P00761 whole entry): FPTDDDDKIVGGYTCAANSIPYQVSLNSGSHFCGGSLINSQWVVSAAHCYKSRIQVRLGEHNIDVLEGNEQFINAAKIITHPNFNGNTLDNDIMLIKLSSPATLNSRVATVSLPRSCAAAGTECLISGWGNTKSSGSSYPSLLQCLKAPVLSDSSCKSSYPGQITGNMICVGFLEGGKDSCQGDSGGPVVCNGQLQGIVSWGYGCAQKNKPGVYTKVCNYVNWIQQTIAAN
Chain of Luciferin 4-monooxygenase (P08659 whole entry): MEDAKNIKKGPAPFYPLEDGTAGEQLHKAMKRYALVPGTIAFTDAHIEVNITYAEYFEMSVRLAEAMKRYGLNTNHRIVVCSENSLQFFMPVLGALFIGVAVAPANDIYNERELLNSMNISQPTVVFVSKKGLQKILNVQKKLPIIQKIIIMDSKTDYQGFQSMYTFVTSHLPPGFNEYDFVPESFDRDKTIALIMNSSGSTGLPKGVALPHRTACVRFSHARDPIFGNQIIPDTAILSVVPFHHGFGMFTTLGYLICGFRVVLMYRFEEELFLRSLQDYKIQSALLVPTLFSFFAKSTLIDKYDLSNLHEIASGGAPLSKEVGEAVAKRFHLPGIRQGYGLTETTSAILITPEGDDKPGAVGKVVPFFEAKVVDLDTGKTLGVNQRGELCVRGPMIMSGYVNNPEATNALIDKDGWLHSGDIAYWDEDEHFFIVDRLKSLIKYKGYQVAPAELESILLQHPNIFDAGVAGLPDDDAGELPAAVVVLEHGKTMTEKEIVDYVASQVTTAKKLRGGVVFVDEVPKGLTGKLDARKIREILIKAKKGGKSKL
Chain of Mu-type opioid receptor (P35372 whole entry): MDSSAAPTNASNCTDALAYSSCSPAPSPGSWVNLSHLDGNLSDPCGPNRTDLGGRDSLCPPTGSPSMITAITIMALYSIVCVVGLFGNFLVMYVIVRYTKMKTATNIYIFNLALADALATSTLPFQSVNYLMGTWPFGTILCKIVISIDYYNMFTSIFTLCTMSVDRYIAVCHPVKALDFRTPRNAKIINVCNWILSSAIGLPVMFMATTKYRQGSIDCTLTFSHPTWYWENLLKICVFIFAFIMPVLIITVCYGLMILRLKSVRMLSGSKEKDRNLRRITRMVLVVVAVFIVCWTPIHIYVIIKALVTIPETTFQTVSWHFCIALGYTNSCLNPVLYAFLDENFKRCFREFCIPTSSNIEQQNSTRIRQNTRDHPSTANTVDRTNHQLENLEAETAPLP
Chain of 5-hydroxytryptamine receptor 5A (P47898 whole entry): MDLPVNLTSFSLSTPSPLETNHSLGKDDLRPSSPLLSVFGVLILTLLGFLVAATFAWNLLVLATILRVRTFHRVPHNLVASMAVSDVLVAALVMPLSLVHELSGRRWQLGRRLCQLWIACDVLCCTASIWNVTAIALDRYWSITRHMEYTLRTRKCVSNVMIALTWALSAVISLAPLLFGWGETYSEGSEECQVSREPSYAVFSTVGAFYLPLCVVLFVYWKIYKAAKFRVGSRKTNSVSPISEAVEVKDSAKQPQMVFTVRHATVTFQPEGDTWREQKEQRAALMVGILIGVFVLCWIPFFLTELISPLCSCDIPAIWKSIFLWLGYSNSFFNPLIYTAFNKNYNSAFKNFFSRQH

COc1cccc(Nc2nc(C)nc3c2oc2ccccc23)c1
active: AC50 (CAAX prenyl protease 2) 6 µM | AC50 (Trypsin) 17 µM

CCn1c(C)nc2cc(-c3nc4n(n3)Cc3ccccc3-4)ccc21
inactive: IC50 [1] > 80 µM | IC50 [5] > 49.8 µM | IC50 [7] 48.1 µM | IC50 (CHO-K1) > 66.2 µM | EC50 (BJ [10]) > 133 µM
active: IC50 (Jurkat) 230 nM | EC50 [2] 1.71 µM | EC50 (BJ [3]) 1.76 µM | EC50 [4] 352 nM | EC50 [6] 311 nM | EC50 (BJ [8]) 2.18 µM | IC50 [9] 2.69 µM | EC50 (BJ [11]) 6.25 µM

Cc1ccc(S(=O)(=O)N2C[C@@H](C)[C@]3(C2)[C@H](O)[C@H](OC(=O)Nc2cccs2)C[C@H]2C(=O)N(c4ccccc4)C(=O)[C@H]23)cc1
active: IC50 (Vero) 22.1 µM

COc1ccc(C(C)NCCC(c2ccc(OC(C)C)cc2)c2ccccc2OC)cc1 (stereo not drawn)
active: AC50 [12] 6.71 µM | AC50 [14] 23.2 µM | AC50 [15] 28.8 µM | AC50 [16] 11.8 µM | AC50 [18] 6.89 µM | AC50 (INS1) 7.14 µM | EC50 [20] 10.6 µM | AC50 [21] 4.45 µM | EC50 [22] 7.93 µM
> 120 µM (not active): EC50 [17]
inactive: EC50 [13] > 92.5 µM | EC50 (Mu-type opioid receptor) > 92.5 µM | EC50 [19] > 92.5 µM

O=[N+]([O-])c1ccc(-c2cc[nH]n2)o1
active: EC50 [23] 202 nM | AC50 (Escherichia coli [25]) 24 µM | AC50 (Escherichia coli [26]) 12.5 µM
> 60 µM (not active): EC50 [24]

CN(C)CCCN(C(=O)CCc1ccccc1)c1nc2ccc(Br)cc2s1
active: CC50 [27] 15.7 µM | AC50 (A-375) 18.6 µM | CC50 [30] 13.6 µM | IC50 (cells) 12.7 µM | CC50 [32] 10.3 µM | CC50 [34] 17.6 µM
inactive: EC50 (Insulin-degrading enzyme [28]) > 54.7 µM | IC50 (HEK293 [29]) 25.4 µM | EC50 (HEK293 [31]) > 55.9 µM | EC50 (Insulin-degrading enzyme [33]) 29.5 µM
